Reference: ChEMBL document CHEMBL1157563 (J Med Chem, 2010)
Active and inactive are the calls of the source. The calls are words filed in the database; no cut-off is given here.

Key:
Histone deacetylase = assay type: cell-based, Homo sapiens; settings: hela
Description: Inhibition of HDAC in human HeLa cell nuclear extract

[1] = target: Receptor tyrosine-protein kinase erbB-2 (Homo sapiens, UniProt P04626)
[2] = target: Epidermal growth factor receptor (Homo sapiens, UniProt P00533)
SK-HEP1 = test: cells; assay type: functional, cell-based; settings: Homo sapiens
Description: Antiproliferative activity against human SKHEP1 cells after hrs by ATP content assay

HepG2 [3] = test: Antiproliferative activity against human HepG2 cells after hrs by ATP content assay; assay type: functional, cell-based
MCF7 = test: cells; assay type: functional, cell-based; settings: Homo sapiens
Description: Antiproliferative activity against human MCF7 cells after hrs by ATP content assay

cells [4] = assay type: functional, cell-based; settings: Homo sapiens, HCC827
Description: Antiproliferative activity against human HCC827 cells after hrs by ATP content assay

CAPAN-1 = test: cells; assay type: functional, cell-based; settings: Homo sapiens
Description: Antiproliferative activity against human Capan1 cells after hrs by ATP content assay

NCI-H358 [5] = test: cells; assay type: functional, cell-based; settings: Homo sapiens
Description: Antiproliferative activity against human NCI-H358 cells after hrs by ATP content assay

NCI-H460 = test: cells; assay type: functional, cell-based; settings: Homo sapiens
Description: Antiproliferative activity against human H460 cells after hrs by ATP content assay

BXPC-3 = test: cells; assay type: functional, cell-based; settings: Homo sapiens
Description: Antiproliferative activity against human BxPC3 cells after hrs by ATP content assay

MDA-MB-231 = test: Antiproliferative activity against human MDA-MB-231 cells after hrs by ATP content assay; assay type: functional, cell-based
SK-BR-3 = test: cells; assay type: functional, cell-based; settings: Homo sapiens
Description: Antiproliferative activity against human SK-BR-3 cells after hrs by ATP content assay

cells [6] = assay type: functional, cell-based, Hep 3B2; settings: Homo sapiens, Hep3B
Description: Antiproliferative activity against human Hep3B2 cells after hrs by ATP content assay

MDA-MB-468 [7] = test: Antitumor activity against human MDA-MB-468 cells xenografted in nude CD1 mouse at 75 mg/kg, po bid relative to control
HepG2 [8] = test: Antitumor activity against human HepG2 cells xenografted in nude CD1 mouse at 72 mg/kg, iv daily relative to control; assay type: functional
HCT-116 = test: Antitumor activity against human HCT116 cells xenografted in nude CD1 mouse at 60 mg/kg, iv dosed daily on 5-2-5 (on-off-on) schedule relative to control; assay type: functional
NCI-H358 [9] = test: Antitumor activity against human NCI-H358 cells xenografted in nude CD1 mouse at 30 mg/kg, iv dosed daily on 7-6-5 (on-off-on) schedule relative to control; assay type: functional
[10] = target: NAD-dependent protein deacetylase sirtuin-2 (Homo sapiens) (UniProt Q8IXJ6); test: Inhibition of human SIRT2 expressed in Escherichia coli
MDA-MB-468 [11] = test: Antitumor activity against human MDA-MB-468 cells xenografted in nude CD1 mouse assessed as tumor regression at 120 mg/kg, iv daily relative to control; assay type: functional
[12] = target: Tyrosine-protein kinase Lck (Homo sapiens, UniProt P06239); test: Inhibition of Lck
A549 = test: Antitumor activity against human A549 cells xenografted in nude CD1 mouse at 120 mg/kg, iv daily relative to control; assay type: functional
[13] = target: Vascular endothelial growth factor receptor 2 (Homo sapiens, UniProt P35968); test: Inhibition of KDR
HPAC = test: Antitumor activity against human HPAC cells xenografted in nude CD1 mouse at 120 mg/kg, iv daily relative to control; assay type: functional
[14] = target: Receptor-type tyrosine-protein kinase FLT3 (Homo sapiens, UniProt P36888); test: Inhibition of Flt3
[15] = target: Tyrosine-protein kinase Lyn (Homo sapiens, UniProt P07948); test: Inhibition of Lyn
NCI-H358 [16] = test: Antitumor activity against human NCI-H358 cells xenografted in nude CD1 mouse at 15 mg/kg, iv dosed daily on 7-6-5 (on-off-on) schedule relative to control; assay type: functional
[17] = target: NAD-dependent protein deacetylase sirtuin-3, mitochondrial (Homo sapiens) (UniProt Q9NTG7); test: Inhibition of human SIRT3 expressed in Escherichia coli
[18] = target: Proto-oncogene tyrosine-protein kinase Src (Homo sapiens, UniProt P12931); test: Inhibition of Src
NCI-H358 [19] = test: Antitumor activity against human NCI-H358 cells xenografted in nude CD1 mouse at 60 mg/kg, iv dosed daily on 7-6-5 (on-off-on) schedule relative to control; assay type: functional
HepG2 [20] = test: Antitumor activity against human HepG2 cells xenografted in nude CD1 mouse assessed as tumor regression at 120 mg/kg, iv daily relative to control; assay type: functional
[21] = target: NAD-dependent protein deacetylase sirtuin-1 (Homo sapiens) (UniProt Q96EB6); test: Inhibition of human SIRT1 expressed in Escherichia coli
CAL-27 = test: Antitumor activity against human CAL27 cells xenografted in nude CD1 mouse assessed as tumor regression at 120 mg/kg, iv daily relative to control; assay type: functional
[22] = target: Fibroblast growth factor receptor 2 (Homo sapiens, UniProt P21802); test: Inhibition of FGFR2
HepG2 [23] = test: Antitumor activity against human HepG2 cells xenografted in nude CD1 mouse at 25 mg/kg, po daily relative to control; assay type: functional

Epidermal growth factor receptor, sequence (P00533 whole entry): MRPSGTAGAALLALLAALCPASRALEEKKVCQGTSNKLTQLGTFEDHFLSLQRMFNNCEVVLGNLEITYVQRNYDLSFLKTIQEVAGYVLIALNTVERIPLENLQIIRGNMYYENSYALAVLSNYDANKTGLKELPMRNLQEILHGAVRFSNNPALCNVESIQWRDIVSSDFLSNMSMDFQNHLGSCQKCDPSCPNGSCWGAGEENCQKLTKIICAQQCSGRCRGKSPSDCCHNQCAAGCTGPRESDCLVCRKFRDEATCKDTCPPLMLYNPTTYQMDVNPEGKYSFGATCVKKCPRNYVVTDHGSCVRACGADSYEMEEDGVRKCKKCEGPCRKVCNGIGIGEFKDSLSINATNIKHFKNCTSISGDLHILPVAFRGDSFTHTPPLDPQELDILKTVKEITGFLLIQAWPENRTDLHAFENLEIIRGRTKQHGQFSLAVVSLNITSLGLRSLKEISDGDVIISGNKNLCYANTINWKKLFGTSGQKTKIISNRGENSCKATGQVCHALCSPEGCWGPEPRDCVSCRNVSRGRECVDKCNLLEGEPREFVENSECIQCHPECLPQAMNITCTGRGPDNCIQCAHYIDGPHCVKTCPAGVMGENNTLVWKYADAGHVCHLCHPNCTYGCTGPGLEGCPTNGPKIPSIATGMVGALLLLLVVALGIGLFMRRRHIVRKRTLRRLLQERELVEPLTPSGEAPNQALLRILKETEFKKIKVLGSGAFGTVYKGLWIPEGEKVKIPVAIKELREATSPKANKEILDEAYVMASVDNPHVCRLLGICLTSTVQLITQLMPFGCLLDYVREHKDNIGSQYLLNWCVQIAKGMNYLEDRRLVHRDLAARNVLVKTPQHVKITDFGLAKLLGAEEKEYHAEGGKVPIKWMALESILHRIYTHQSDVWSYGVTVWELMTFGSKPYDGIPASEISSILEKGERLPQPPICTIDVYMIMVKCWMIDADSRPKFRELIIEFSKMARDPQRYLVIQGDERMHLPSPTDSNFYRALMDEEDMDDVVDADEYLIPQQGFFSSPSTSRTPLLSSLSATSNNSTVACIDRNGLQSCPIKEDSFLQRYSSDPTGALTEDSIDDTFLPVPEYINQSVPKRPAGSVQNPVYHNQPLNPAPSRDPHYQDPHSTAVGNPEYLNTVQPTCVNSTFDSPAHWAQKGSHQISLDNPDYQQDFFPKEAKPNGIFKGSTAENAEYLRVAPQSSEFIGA
Receptor tyrosine-protein kinase erbB-2, sequence (P04626 whole entry): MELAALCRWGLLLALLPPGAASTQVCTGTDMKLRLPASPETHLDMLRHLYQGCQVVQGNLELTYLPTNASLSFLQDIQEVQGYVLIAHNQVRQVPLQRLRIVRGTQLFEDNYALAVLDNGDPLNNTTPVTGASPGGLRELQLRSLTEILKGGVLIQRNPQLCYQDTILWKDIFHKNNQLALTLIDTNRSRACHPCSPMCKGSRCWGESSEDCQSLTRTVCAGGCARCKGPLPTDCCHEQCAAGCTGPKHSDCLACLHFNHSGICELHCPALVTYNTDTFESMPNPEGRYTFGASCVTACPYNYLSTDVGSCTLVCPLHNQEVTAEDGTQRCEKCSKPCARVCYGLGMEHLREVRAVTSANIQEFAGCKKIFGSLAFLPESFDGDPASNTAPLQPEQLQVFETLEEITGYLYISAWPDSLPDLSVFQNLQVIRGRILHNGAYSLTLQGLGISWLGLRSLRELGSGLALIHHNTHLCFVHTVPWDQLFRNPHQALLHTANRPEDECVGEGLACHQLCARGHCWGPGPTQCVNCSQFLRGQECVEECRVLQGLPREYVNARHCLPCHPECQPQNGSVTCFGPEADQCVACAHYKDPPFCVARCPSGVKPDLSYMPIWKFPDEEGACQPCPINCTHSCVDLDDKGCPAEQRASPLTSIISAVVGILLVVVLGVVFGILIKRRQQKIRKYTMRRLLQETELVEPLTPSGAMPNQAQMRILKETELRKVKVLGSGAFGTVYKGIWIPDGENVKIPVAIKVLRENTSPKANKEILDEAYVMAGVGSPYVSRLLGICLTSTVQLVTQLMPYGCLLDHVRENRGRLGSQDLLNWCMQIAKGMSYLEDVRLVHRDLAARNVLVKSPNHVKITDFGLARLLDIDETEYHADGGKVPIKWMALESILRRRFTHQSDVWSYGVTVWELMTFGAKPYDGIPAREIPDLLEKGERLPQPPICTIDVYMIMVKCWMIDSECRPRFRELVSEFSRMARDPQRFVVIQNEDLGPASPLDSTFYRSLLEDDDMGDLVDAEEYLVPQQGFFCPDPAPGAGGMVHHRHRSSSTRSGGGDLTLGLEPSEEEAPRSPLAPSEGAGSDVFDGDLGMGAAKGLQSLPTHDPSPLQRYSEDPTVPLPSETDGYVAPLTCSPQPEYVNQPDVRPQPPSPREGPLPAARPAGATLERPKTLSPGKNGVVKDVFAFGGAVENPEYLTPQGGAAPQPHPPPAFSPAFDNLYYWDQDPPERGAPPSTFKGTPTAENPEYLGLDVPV
NAD-dependent protein deacetylase sirtuin-2 (Homo sapiens), sequence (Q8IXJ6 whole entry): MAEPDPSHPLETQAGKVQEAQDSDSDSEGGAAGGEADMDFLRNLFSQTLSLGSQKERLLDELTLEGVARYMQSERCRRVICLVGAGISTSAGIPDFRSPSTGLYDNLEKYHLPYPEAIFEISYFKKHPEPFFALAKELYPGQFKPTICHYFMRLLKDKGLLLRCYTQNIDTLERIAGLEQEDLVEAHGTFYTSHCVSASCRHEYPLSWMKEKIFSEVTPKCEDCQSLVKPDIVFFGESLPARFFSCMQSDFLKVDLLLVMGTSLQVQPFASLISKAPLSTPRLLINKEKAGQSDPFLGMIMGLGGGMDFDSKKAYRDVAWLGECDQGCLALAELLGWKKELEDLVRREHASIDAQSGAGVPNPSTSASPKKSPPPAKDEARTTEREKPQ
Fibroblast growth factor receptor 2, sequence (P21802 whole entry): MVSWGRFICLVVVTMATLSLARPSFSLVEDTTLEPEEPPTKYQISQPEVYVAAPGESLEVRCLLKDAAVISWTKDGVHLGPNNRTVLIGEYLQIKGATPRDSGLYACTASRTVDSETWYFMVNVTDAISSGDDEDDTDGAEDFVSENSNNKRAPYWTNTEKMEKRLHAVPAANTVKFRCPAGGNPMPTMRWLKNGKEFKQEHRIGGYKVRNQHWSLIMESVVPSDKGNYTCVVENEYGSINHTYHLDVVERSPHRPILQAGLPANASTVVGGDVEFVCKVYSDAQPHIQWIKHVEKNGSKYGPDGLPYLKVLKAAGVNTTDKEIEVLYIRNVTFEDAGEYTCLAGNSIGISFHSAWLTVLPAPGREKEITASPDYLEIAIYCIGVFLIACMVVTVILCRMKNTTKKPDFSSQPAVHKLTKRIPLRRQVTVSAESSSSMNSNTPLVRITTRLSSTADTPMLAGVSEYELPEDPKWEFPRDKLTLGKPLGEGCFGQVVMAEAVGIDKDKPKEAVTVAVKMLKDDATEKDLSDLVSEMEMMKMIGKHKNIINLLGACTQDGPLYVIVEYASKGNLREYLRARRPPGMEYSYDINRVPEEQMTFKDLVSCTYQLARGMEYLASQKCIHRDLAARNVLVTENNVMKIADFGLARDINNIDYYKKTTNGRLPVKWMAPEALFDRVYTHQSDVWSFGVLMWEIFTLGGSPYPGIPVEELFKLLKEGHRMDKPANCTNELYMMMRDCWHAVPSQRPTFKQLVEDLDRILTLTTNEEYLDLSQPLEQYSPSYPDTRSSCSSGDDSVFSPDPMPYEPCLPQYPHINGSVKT
NAD-dependent protein deacetylase sirtuin-1 (Homo sapiens), sequence (Q96EB6 whole entry): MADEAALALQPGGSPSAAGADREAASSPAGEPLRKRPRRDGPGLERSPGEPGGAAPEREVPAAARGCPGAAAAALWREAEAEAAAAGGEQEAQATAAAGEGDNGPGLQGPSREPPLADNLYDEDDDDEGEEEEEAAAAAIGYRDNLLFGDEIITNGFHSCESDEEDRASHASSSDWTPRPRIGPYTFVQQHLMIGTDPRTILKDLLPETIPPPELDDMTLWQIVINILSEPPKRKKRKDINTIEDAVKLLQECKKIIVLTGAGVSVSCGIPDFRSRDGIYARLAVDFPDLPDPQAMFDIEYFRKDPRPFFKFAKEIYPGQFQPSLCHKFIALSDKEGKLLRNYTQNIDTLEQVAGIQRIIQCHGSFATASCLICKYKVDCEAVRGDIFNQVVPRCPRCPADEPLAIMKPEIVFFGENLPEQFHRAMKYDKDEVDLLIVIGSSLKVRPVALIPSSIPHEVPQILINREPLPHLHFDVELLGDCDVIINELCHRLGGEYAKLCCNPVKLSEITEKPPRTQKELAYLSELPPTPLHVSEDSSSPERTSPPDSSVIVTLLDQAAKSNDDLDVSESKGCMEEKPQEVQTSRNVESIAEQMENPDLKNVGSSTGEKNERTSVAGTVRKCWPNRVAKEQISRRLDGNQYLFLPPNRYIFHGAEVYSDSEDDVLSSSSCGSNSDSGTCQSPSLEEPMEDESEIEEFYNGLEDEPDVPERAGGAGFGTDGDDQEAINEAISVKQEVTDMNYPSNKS
Tyrosine-protein kinase Lyn, sequence (P07948 whole entry): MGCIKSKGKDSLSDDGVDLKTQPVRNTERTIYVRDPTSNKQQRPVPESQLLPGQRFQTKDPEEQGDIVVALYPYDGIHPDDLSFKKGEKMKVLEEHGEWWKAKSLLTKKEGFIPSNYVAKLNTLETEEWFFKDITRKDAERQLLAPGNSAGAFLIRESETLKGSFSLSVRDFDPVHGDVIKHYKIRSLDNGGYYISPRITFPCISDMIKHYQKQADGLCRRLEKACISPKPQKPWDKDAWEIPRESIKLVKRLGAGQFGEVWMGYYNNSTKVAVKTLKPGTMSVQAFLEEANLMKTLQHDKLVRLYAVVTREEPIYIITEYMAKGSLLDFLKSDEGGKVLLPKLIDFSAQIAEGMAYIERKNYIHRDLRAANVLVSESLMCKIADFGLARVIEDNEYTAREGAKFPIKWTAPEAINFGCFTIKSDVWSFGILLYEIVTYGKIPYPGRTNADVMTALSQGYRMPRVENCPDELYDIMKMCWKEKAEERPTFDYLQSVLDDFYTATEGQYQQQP

## COc1cc2ncnc(NCc3ccc(Cl)c(F)c3)c2cc1OCCCCCCC(=O)NO
Histone deacetylase
  IC50: 11.3 nM
[1]
  IC50: 478 nM
[2]
  IC50: 72 nM

## C#Cc1cccc(Nc2ncnc3cc(OCCCCCCC(=O)NO)c(OC)cc23)c1
Histone deacetylase
  IC50: 34.1 nM
[1]
  IC50: 51.6 nM
[2]
  IC50: 8.2 nM

## COc1cc2ncnc(Nc3ccc(F)c(Cl)c3)c2cc1OCCC(=O)NO
Histone deacetylase
  IC50: 40900 nM
[1]
  IC50: 10.6 nM
[2]
  IC50: 7.1 nM

## COc1cc2ncnc(Nc3ccc(F)c(Cl)c3)c2cc1OCCCCCCC(=O)NO
SK-HEP1
  IC50: 330 nM
HepG2 [3]
  IC50: 290 nM
MCF7
  IC50: 1100 nM
Cells [4]
  IC50: 930 nM
CAPAN-1
  IC50: 1730 nM
NCI-H358 [5]
  IC50: 710 nM
NCI-H460
  IC50: 900 nM
BXPC-3
  IC50: 380 nM
MDA-MB-231
  IC50: 370 nM
Histone deacetylase
  IC50: 6.5 nM
[1]
  IC50: 19 nM
SK-BR-3
  IC50: 170 nM
Cells [6]
  IC50: 600 nM

## COc1cc2ncnc(NCc3ccccc3)c2cc1OCCCCCCC(=O)NO
Histone deacetylase
  IC50: 4.2 nM
[1]
  IC50: 225 nM
[2]
  IC50: 99.4 nM

## C#Cc1cccc(Nc2ncnc3cc(OC)c(OCCCCCC(=O)NO)cc23)c1
Histone deacetylase
  IC50: 13.2 nM
[1]
  IC50: 38.2 nM
[2]
  IC50: 4.6 nM

## COc1cc2ncnc(N[C@H](C)c3ccccc3)c2cc1OCCCCCCC(=O)NO
Histone deacetylase
  IC50: 98.4 nM
[1]
  IC50: 27.8 nM

## C#Cc1cccc(Nc2ncnc3cc(OC)c(OCCCCC(=O)NO)cc23)c1
Histone deacetylase
  IC50: 421 nM
[1]
  IC50: 38.4 nM

## COc1cc2ncnc(Nc3ccc(F)c(Cl)c3)c2cc1OCCCCCC(=O)NO
Histone deacetylase
  IC50: 31 nM
[1]
  IC50: 20 nM
[2]
  IC50: 3.4 nM

## O=C(CCCCCCOc1ccc2ncnc(Nc3ccc(F)c(Cl)c3)c2c1)NO
Histone deacetylase
  IC50: 4.4 nM
[1]
  IC50: 43.5 nM
[2]
  IC50: 84.2 nM

## COc1cc2ncnc(Nc3ccc(OCc4cccc(F)c4)c(Cl)c3)c2cc1OCCCCCCC(=O)NO
Histone deacetylase
  IC50: 58.1 nM
[1]
  IC50: 10.1 nM
[2]
  IC50: 9.08 nM

## CS(=O)(=O)CCNCc1ccc(-c2ccc3ncnc(Nc4ccc(OCc5cccc(F)c5)c(Cl)c4)c3c2)o1 [LAPATINIB]
SK-HEP1
  IC50: 5300 nM
HepG2 [3]
  IC50: 6270 nM
MCF7
  IC50: 6600 nM
MDA-MB-468 [7]
  Activity: 51%
MDA-MB-231
  IC50: 5400 nM
SK-BR-3
  IC50: 40 nM
Cells [6]
  IC50: 5490 nM

## COc1cc2ncnc(NC(C)c3ccc(Cl)cc3)c2cc1OCCCCCCC(=O)NO (single isomer, unassigned)
Histone deacetylase
  IC50: 188 nM
[1]
  IC50: 557 nM
[2]
  IC50: 614 nM

## O=C(CCCCCCC(=O)Nc1ccccc1)NO [VORINOSTAT]
HepG2 [8]
  Activity: 26%
HepG2 [3]
  IC50: 1660 nM
MDA-MB-231
  IC50: 2110 nM

## C#Cc1cccc(Nc2ncnc3cc(OC)c(OCCCCCCC(=O)NO)cc23)c1 [CUDC-101]
HCT-116
  Activity: 35.3%
NCI-H358 [9]
  Activity: 10.3%
[10]
  Activity: inactive
SK-HEP1
  IC50: 220 nM
MDA-MB-468 [11]
  Activity: -13.7%
[12]
  IC50: 5910 nM
HepG2 [3]
  IC50: 130 nM
A549
  Activity: 35.9%
MCF7
  IC50: 550 nM
Cells [4]
  IC50: 600 nM
CAPAN-1
  IC50: 800 nM
[13]
  IC50: 849 nM
NCI-H358 [5]
  IC50: 400 nM
HPAC
  Activity: 35.1%
[14]
  IC50: 1500 nM
NCI-H460
  IC50: 700 nM
[15]
  IC50: 840 nM
NCI-H358 [16]
  Activity: 41.9%
[17]
  Activity: inactive
[18]
  IC50: 11000 nM
NCI-H358 [19]
  Activity: 6.5%
BXPC-3
  IC50: 270 nM
MDA-MB-231
  IC50: 100 nM
HepG2 [20]
  Activity: -21.3%
[21]
  Activity: inactive
CAL-27
  Activity: -36.5%
[22]
  IC50: 3430 nM
SK-BR-3
  IC50: 40 nM
Cells [6]
  IC50: 230 nM

## COc1cc2ncnc(Nc3ccc(F)c(Cl)c3)c2cc1S(=O)(=O)CCCCCCC(=O)NO
Histone deacetylase
  IC50: 121.7 nM
[1]
  IC50: > 2000 nM
[2]
  IC50: 15.4 nM

## COc1cc2c(Nc3ccc(F)c(Cl)c3)ncnc2cc1OCCCCCCC(=O)NO
Histone deacetylase
  IC50: 66.6 nM
[1]
  IC50: 71.2 nM
[2]
  IC50: 7 nM

## COc1cc2ncnc(Nc3ccc(F)c(Cl)c3)c2cc1OCCCC(=O)NO
Histone deacetylase
  IC50: > 100000 nM
[1]
  IC50: 12.4 nM
[2]
  IC50: 7.8 nM

## COCCOc1cc2ncnc(Nc3ccc(F)c(Cl)c3)c2cc1OCCCCCCC(=O)NO
Histone deacetylase
  IC50: 8.4 nM
[1]
  IC50: 24 nM
[2]
  IC50: 10.4 nM

## COc1cc2ncnc(NC(C)c3ccc(F)cc3)c2cc1OCCCCCCC(=O)NO (single isomer, unassigned)
Histone deacetylase
  IC50: 165.3 nM
[1]
  IC50: 175 nM
[2]
  IC50: 126 nM

## COc1cc2ncnc(NCc3ccc(F)cc3)c2cc1OCCCCCCC(=O)NO
Histone deacetylase
  IC50: 5.6 nM
[1]
  IC50: 295 nM

## COc1cc2ncnc(Nc3ccc(F)c(Cl)c3)c2cc1OCCCCC(=O)NO
Histone deacetylase
  IC50: 551 nM
[1]
  IC50: 15 nM
[2]
  IC50: 9.4 nM

## C#Cc1cccc(Nc2ncnc3cc(OCCOC)c(OCCOC)cc23)c1 [ERLOTINIB]
HepG2 [23]
  Activity: 50.8%

## COc1cc2ncnc(N[C@@H](C)c3ccccc3)c2cc1OCCCCCCC(=O)NO
Histone deacetylase
  IC50: 25.7 nM
[1]
  IC50: > 2000 nM

## COc1cc2ncnc(Nc3ccc(F)c(Cl)c3)c2cc1NC(=O)CCCCCCC(=O)NO
Histone deacetylase
  IC50: 15.3 nM
[1]
  IC50: 20.1 nM
[2]
  IC50: 2.1 nM

## C#Cc1cc(Nc2ncnc3cc(OC)c(OCCCCCCC(=O)NO)cc23)ccc1F
Histone deacetylase
  IC50: 3.4 nM
[1]
  IC50: 76.5 nM
[2]
  IC50: 28.8 nM

## COc1cc2ncnc(Nc3ccc(F)c(Cl)c3)c2cc1SCCCCCCC(=O)NO
Histone deacetylase
  IC50: 39.6 nM
[1]
  IC50: 24.2 nM
[2]
  IC50: 1.99 nM
